Here are results for one molecule from US10655144B2, “Nucleic acid construct with a p16 promoter that causes a prodrug converting enzyme to be expressed specifically in senescent cells” (Buck Institute for Research on Aging, priority 2012, dated 2020).

Structures are written as SMILES.

For assay [1], the system named is senescent cells. Nature of the assay: Measures of health at 18 months of age (weight, fat mass, treadmill activity) in AP20187-treated INK-ATTAC mice. Type of assay: in vivo, INK-ATTAC transgenic mice. How it is done:
(§1) Clearance of therapy-induced senescent cells improves age-sensitive traits and other health parameters in aged animals. […] INK-ATTAC transgenic animals from each of lineage 3 (TG3) and lineage 5 (TG5) were used in the experiments (see Baker et al., Nature, supra). INK-ATTAC transgenic mice were aged 10-12 weeks, and then cohorts of animals were treated with AP20187 or PBS (control) on a weekly basis from the start of treatment.
(§2) When the animals reached 18 months of age, several measures of health and lifespan were taken. Weight, fat mass, activity measurements (treadmill exercise tests to measure distance traveled and duration of exercise) were compared between untreated female mice (n=16) and AP20187-treated female mice (n=21), and compared between untreated male mice (n=19) and AP20187-treated male mice (n=21). Fat mass was greater in both treated females and males compared with the untreated groups (see FIG. 5). […] Treated and untreated mice (5-6 per group) were sacrificed, and adipose cell (AC) diameter, gastrocnemius muscle fiber diameter (μm), abdominal muscle fiber diameter (μm), dermal thickness (μm), subdermal adipose thickness (μm), cardiac performance (introduction of isoproterenol as an exogenous stress in animals prior to sacrifice), and extent of glomerulosclerosis were determined. Treated animals had greater adipose cell diameter (see FIG. 6); better cardiac performance (FIG. 7); and had less sclerotic glomeruli (see FIG. 8) than untreated animals. […] Removal of senescent cells in AP20187-treated animals prevented loss of adipose tissue, prevented loss of cardiac performance, and reduced the extent of glomerulosclerosis.

In assay [2] the test system is senescent cells. Put plainly: Tissue and organ analyses after sacrifice (adipose cell diameter, muscle fiber diameter, skin thickness, cardiac performance, glomerulosclerosis) in AP20187-treated INK-ATTAC mice. It is filed as in vivo, INK-ATTAC transgenic mice. The settings on record: treated vs untreated. How it is done:
as §1, §2

Assay [3] has as its system senescent cells. Put plainly: Lifespan of wild type INK-ATTAC transgenic mice with senescent cells removed by weekly AP20187. Type of assay: in vivo. The note with it: weekly treatment from 10-12 weeks of age; PBS control 21 months; FIG. 4. Here is the method:
as §1

Turning to `CC[C@H](C(=O)N1CCCC[C@H]1C(=O)O[C@H](CCc1ccc(OC)c(OC)c1)c1cccc(OCC(=O)NCC(CNC(=O)COc2cccc([C@@H](CCc3ccc(OC)c(OC)c3)OC(=O)[C@@H]3CCCCN3C(=O)[C@@H](CC)c3cc(OC)c(OC)c(OC)c3)c2)CN(C)C)c1)c1cc(OC)c(OC)c(OC)c1` [AP20187], in assay [1] (treated females and males each vs untreated group of same sex, FIG. 5), the fat mass entry is on record as “greater”. In assay [1] (treated vs untreated animals), the “activity measurements (treadmill exercise tests: distance traveled and duration of exercise)” value was “No statistically significant differences”; the weight entry is “No statistically significant differences”. Besides, in assay [2] (isoproterenol as exogenous stress prior to sacrifice, FIG. 7), the cardiac performance entry is on record as “better”. Besides, the “adipose cell (AC) diameter” value in assay [2] (sacrificed mice, 5-6 per group, FIG. 6) is reported as “greater”. In assay [2] (sacrificed mice), the “abdominal muscle fiber diameter” value was “No significant differences”, the dermal thickness entry was “No significant differences”, the “gastrocnemius muscle fiber diameter” value is reported as “No significant differences” and the subdermal adipose thickness result was “No significant differences”. Moreover, the “extent of glomerulosclerosis (sclerotic glomeruli)” value in assay [2] (sacrificed mice, FIG. 8) is “less”. For the same molecule, the average lifespan entry in assay [3] was “approximately 26 months”.
